Consider six compounds from patent US20150141336A1, “Pancreatic Peptide Compounds and Use” (Novo Nordisk A/S, priority 2012, published 2015).

Numbered stars: 1 amine (or outer) side, 2 acyl side, 3 side chain; on linkers, the order of the positions; unused ones are H or OH. Side chains are listed from the residue outwards. Peptide text beside a SMILES is read from it. * marks the point of attachment. C18 diacid = O=C(O)CCCCCCCCCCCCCCCCC(=O)*; γGlu = O=C(O)[C@H](CCC(=O)[*:2])N[*:1]; AEEA = NCCOCCOCC(=O)O

The series can be described thus: Assay (II) PK i.v. minipig, in vivo half-life. On the set-up: species or system Göttingen mini-pigs. The settings on record: male, Göttingen, minipig, iv, Half-life minipig, Assay (II). Put shortly: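 Male Göttingen mini-pigs (18–22 kg, n=5) received 6 nmol/kg i.v. via central catheter, formulated in 50 mM K2HPO4, 0.05% tween 80, pH 8.0. EDTA plasma sampled pre-dose to 240 h, quantified by TFC/LC/MS/MS (MRM, range 1-2000 nmol/l); half-life from non-compartmental analysis per animal.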
As usually defined, the half-life is how long it takes for the measured level to halve. Take `CC[C@H](C)[C@H](NC(=O)[C@H](Cc1ccc(O)cc1)NC(=O)[C@H](CCCNC(=N)N)NC(=O)[C@H](CCCNC(=N)N)NC(=O)[C@H](CC(C)C)NC(=O)[C@H](CC(=O)O)NC(=O)[C@H](C)NC(=O)[C@H](C)NC(=O)[C@H](Cc1ccc(O)cc1)NC(=O)[C@H](CCC(N)=O)NC(=O)[C@H](C)NC(=O)[C@H](CCSC)NC(=O)[C@H](CCC(N)=O)NC(=O)[C@H](CCC(=O)O)NC(=O)[C@H](CCCCNC(=O)COCCOCCNC(=O)COCCOCCNC(=O)CC[C@H](NC(=O)CCCCCCCCCCCCCCCCC(=O)O)C(=O)O)NC(=O)[C@@H](NC(=O)[C@H](C)NC(=O)[C@H](CC(N)=O)NC(=O)[C@H](CC(=O)O)NC(=O)CNC(=O)[C@@H]1CCCN1C(=O)[C@H](Cc1ccc(O)cc1)NC(=O)[C@@H](NC(=O)[C@@H]1CCCN1C(=O)[C@H](CCC(=O)O)NC(=O)[C@@H](N)CC(C)C)C(C)C)[C@@H](C)O)C(=O)N[C@@H](CC(N)=O)C(=O)N[C@@H](CCSC)C(=O)N[C@@H](CC(C)C)C(=O)N[C@H](C(=O)N[C@@H](CCCNC(=N)N)C(=O)N1CCC[C@H]1C(=O)N[C@@H](CCCNC(=N)N)C(=O)N[C@@H](Cc1ccc(O)cc1)C(N)=O)[C@@H](C)O` [Compound BB] (H-LEPVYPGDNATK([AEEA-AEEA-γGlu-C18 diacid])EQMAQYAADLRRYINMLTRPRY-NH2; N-terminus and C-terminus assumed): the half-life was 19 h.

Regarding `CC[C@H](C)[C@H](NC(=O)[C@H](Cc1ccc(O)cc1)NC(=O)[C@H](CCCNC(=N)N)NC(=O)[C@H](CCCNC(=N)N)NC(=O)[C@H](CC(C)C)NC(=O)[C@H](CC(=O)O)NC(=O)[C@H](C)NC(=O)[C@H](C)NC(=O)[C@H](Cc1ccc(O)cc1)NC(=O)[C@H](CCC(N)=O)NC(=O)[C@H](C)NC(=O)[C@H](CCSC)NC(=O)[C@H](CCC(N)=O)NC(=O)[C@H](CCC(=O)O)NC(=O)[C@@H]1CCCN1C(=O)[C@H](CCCCNC(=O)COCCOCCNC(=O)COCCOCCNC(=O)CC[C@H](NC(=O)CCCCCCCCCCCCCCCCC(=O)O)C(=O)O)NC(=O)[C@H](C)NC(=O)[C@H](CC(N)=O)NC(=O)[C@H](CC(=O)O)NC(=O)CNC(=O)[C@@H]1CCCN1C(=O)[C@H](Cc1ccc(O)cc1)NC(=O)[C@@H](NC(=O)[C@@H]1CCCN1C(=O)[C@H](CCC(=O)O)NC(=O)[C@@H](N)CC(C)C)C(C)C)C(=O)N[C@@H](CC(N)=O)C(=O)N[C@@H](CCSC)C(=O)N[C@@H](CC(C)C)C(=O)N[C@H](C(=O)N[C@@H](CCCNC(=N)N)C(=O)N1CCC[C@H]1C(=O)N[C@@H](CCCNC(=N)N)C(=O)N[C@@H](Cc1ccc(O)cc1)C(N)=O)[C@@H](C)O` [Compound BC] (H-LEPVYPGDNAK([AEEA-AEEA-γGlu-C18 diacid])PEQMAQYAADLRRYINMLTRPRY-NH2; N-terminus and C-terminus assumed), the half-life is 16 h.

In the case of `CC[C@H](C)[C@H](NC(=O)[C@H](Cc1ccc(O)cc1)NC(=O)[C@H](CCCNC(=N)N)NC(=O)[C@H](CCCNC(=N)N)NC(=O)[C@H](CC(C)C)NC(=O)[C@H](CC(=O)O)NC(=O)[C@H](C)NC(=O)[C@H](C)NC(=O)[C@H](Cc1ccc(O)cc1)NC(=O)[C@H](CCC(N)=O)NC(=O)[C@H](C)NC(=O)[C@H](CCSC)NC(=O)[C@H](CCC(N)=O)NC(=O)[C@H](CCC(=O)O)NC(=O)[C@@H]1CCCN1C(=O)[C@@H](NC(=O)[C@H](CCCCNC(=O)COCCOCCNC(=O)COCCOCCNC(=O)CC[C@H](NC(=O)CCCCCCCCCCCCCCCCC(=O)O)C(=O)O)NC(=O)[C@H](CC(N)=O)NC(=O)[C@H](CC(=O)O)NC(=O)CNC(=O)[C@@H]1CCCN1C(=O)[C@H](Cc1ccc(O)cc1)NC(=O)[C@@H](NC(=O)[C@@H]1CCCN1C(=O)[C@H](CCC(=O)O)NC(=O)[C@@H](N)CC(C)C)C(C)C)[C@@H](C)O)C(=O)N[C@@H](CC(N)=O)C(=O)N[C@@H](CCSC)C(=O)N[C@@H](CC(C)C)C(=O)N[C@H](C(=O)N[C@@H](CCCNC(=N)N)C(=O)N1CCC[C@H]1C(=O)N[C@@H](CCCNC(=N)N)C(=O)N[C@@H](Cc1ccc(O)cc1)C(N)=O)[C@@H](C)O` [Compound BD], the half-life was 17 h.

For the compound `CC[C@H](C)[C@H](NC(=O)[C@H](Cc1ccc(O)cc1)NC(=O)[C@H](CCCNC(=N)N)NC(=O)[C@H](CCCNC(=N)N)NC(=O)[C@H](CC(C)C)NC(=O)[C@H](CC(=O)O)NC(=O)[C@H](C)NC(=O)[C@H](C)NC(=O)[C@H](Cc1ccc(O)cc1)NC(=O)[C@H](CCC(N)=O)NC(=O)[C@H](C)NC(=O)[C@H](CCSC)NC(=O)[C@H](CCC(N)=O)NC(=O)[C@H](CCC(=O)O)NC(=O)[C@@H]1CCCN1C(=O)[C@@H](NC(=O)[C@H](C)NC(=O)[C@H](CC(N)=O)NC(=O)[C@H](CCCCNC(=O)COCCOCCNC(=O)COCCOCCNC(=O)CC[C@H](NC(=O)CCCCCCCCCCCCCCCCC(=O)O)C(=O)O)NC(=O)CNC(=O)[C@@H]1CCCN1C(=O)[C@H](Cc1ccc(O)cc1)NC(=O)[C@@H](NC(=O)[C@@H]1CCCN1C(=O)[C@H](CCC(=O)O)NC(=O)[C@@H](N)CC(C)C)C(C)C)[C@@H](C)O)C(=O)N[C@@H](CC(N)=O)C(=O)N[C@@H](CCSC)C(=O)N[C@@H](CC(C)C)C(=O)N[C@H](C(=O)N[C@@H](CCCNC(=N)N)C(=O)N1CCC[C@H]1C(=O)N[C@@H](CCCNC(=N)N)C(=O)N[C@@H](Cc1ccc(O)cc1)C(N)=O)[C@@H](C)O` [Compound BF], the half-life is 17 h.

With `CC[C@H](C)[C@H](NC(=O)[C@H](Cc1ccc(O)cc1)NC(=O)[C@H](CCCNC(=N)N)NC(=O)[C@H](CCCNC(=N)N)NC(=O)[C@H](CC(C)C)NC(=O)[C@H](CC(=O)O)NC(=O)[C@H](C)NC(=O)[C@H](C)NC(=O)[C@H](Cc1ccc(O)cc1)NC(=O)[C@H](CCC(N)=O)NC(=O)[C@H](C)NC(=O)[C@H](CCSC)NC(=O)[C@H](CCC(N)=O)NC(=O)[C@H](CCC(=O)O)NC(=O)[C@@H]1CCCN1C(=O)[C@@H](NC(=O)[C@H](C)NC(=O)[C@H](CC(N)=O)NC(=O)[C@H](CC(=O)O)NC(=O)CNC(=O)[C@H](CCCCNC(=O)COCCOCCNC(=O)COCCOCCNC(=O)CC[C@H](NC(=O)CCCCCCCCCCCCCCCCC(=O)O)C(=O)O)NC(=O)[C@H](Cc1ccc(O)cc1)NC(=O)[C@@H](NC(=O)[C@@H]1CCCN1C(=O)[C@H](CCC(=O)O)NC(=O)[C@@H](N)CC(C)C)C(C)C)[C@@H](C)O)C(=O)N[C@@H](CC(N)=O)C(=O)N[C@@H](CCSC)C(=O)N[C@@H](CC(C)C)C(=O)N[C@H](C(=O)N[C@@H](CCCNC(=N)N)C(=O)N1CCC[C@H]1C(=O)N[C@@H](CCCNC(=N)N)C(=O)N[C@@H](Cc1ccc(O)cc1)C(N)=O)[C@@H](C)O` [Compound BH], the half-life is 10 h.

Take `CC[C@H](C)[C@H](NC(=O)[C@H](Cc1ccc(O)cc1)NC(=O)[C@H](CCCNC(=N)N)NC(=O)[C@H](CCCNC(=N)N)NC(=O)[C@H](CC(C)C)NC(=O)[C@H](CC(=O)O)NC(=O)[C@H](C)NC(=O)[C@H](C)NC(=O)[C@H](Cc1ccc(O)cc1)NC(=O)[C@H](CCC(N)=O)NC(=O)[C@H](C)NC(=O)[C@H](CCSC)NC(=O)[C@H](CCC(N)=O)NC(=O)[C@H](CCC(=O)O)NC(=O)[C@@H]1CCCN1C(=O)[C@@H](NC(=O)[C@H](C)NC(=O)[C@H](CC(N)=O)NC(=O)[C@H](CC(=O)O)NC(=O)CNC(=O)[C@@H]1CCCN1C(=O)[C@H](CCCCNC(=O)COCCOCCNC(=O)COCCOCCNC(=O)CC[C@H](NC(=O)CCCCCCCCCCCCCCCCC(=O)O)C(=O)O)NC(=O)[C@@H](NC(=O)[C@@H]1CCCN1C(=O)[C@H](CCC(=O)O)NC(=O)[C@@H](N)CC(C)C)C(C)C)[C@@H](C)O)C(=O)N[C@@H](CC(N)=O)C(=O)N[C@@H](CCSC)C(=O)N[C@@H](CC(C)C)C(=O)N[C@H](C(=O)N[C@@H](CCCNC(=N)N)C(=O)N1CCC[C@H]1C(=O)N[C@@H](CCCNC(=N)N)C(=O)N[C@@H](Cc1ccc(O)cc1)C(N)=O)[C@@H](C)O` [Compound BI]: the half-life is 9 h.
